Test results published in patent US20260256752A1, “HIGHLY WATER SOLUBLE SCHIFF BASE PRODRUGS OF BENZALDEHYDE ALLOSTERIC MODULATORS” (ILLEXCOR HOLDINGS, LLC, priority 2022, published 2026).
Entries after “also recorded” stand apart in the source; their conditions may differ.

Assays:
[1] = Single-dose oral pharmacokinetics in rats; format: in vivo, male Sprague Dawley (SD) rats; conditions: rat whole blood; single oral dose 100 mg/kg
Description: Single-dose pharmacokinetics (PK) in male Sprague Dawley (SD) rats (n=4) were assessed for each compound, and the maximum or peak whole blood concentration and area under the curve are shown in Table 5.
Single doses of each compound were administered as oral suspensions by gavage in 0.5% carboxy methylcellulose at 100 mg/kg. Whole blood levels were collected for at least 72 hours after dose administration. Bioanalyses were performed with liquid chromatography-tandem mass spectrometry […].

[2] = most patients with SCD; cited from earlier work
[3] = 14-day repeat-dose oral pharmacokinetics in rats; format: in vivo, male and female SD rats; conditions: oral 100 mg/kg for 14 days, Day 14
Description: (§1) Repeat oral doses of each compound were administered by oral gavage for 14 days to male and female SD rats (n=3). […] Steady state exposures for the final dosing interval on Day 14 were similar to total compound exposure from single-dose PK.
(§2) Repeat doses of each compound were administered once daily as oral suspensions by gavage in 0.5% carboxy methylcellulose for 14 days at 100 mg/kg. Whole blood was collected at 7 time-points for up to 24 hours during the final dosing interval on Day 14. Clinical observations, body weights, and food consumption were recorded throughout the 14 day study. Clinical chemistry and hematologic parameters were assessed, and histopathology was performed on organs after 14 days of exposure to study drug.

[4] = system: blood suspensions from humans with homozygous SCD; experiment: Oxygen-independent sickle inhibition under anoxia (100% nitrogen) in SS blood suspensions; format: cell-based, human
Description: All compounds (Comp 1-13) and comparator molecules (VZHE-039, PP-14, INN-310, and Voxelotor) were evaluated following established procedures (Abdulmalik et al., 2005, 2020; Pagare et al., 2020). Blood samples from individual donors with homozygous SCD (obtained with informed consent) were diluted using Hemox buffer solution with the addition of glucose (10 mM) and BSA (0.2%) to adjust hematocrit of the blood suspensions to 20%, which standardizes the procedure to normalize the ratio of RBCs to drug, for assay consistency and reproducibility. Briefly, blood suspensions were incubated under room air in the presence of various concentrations of test compounds (0-2 mM) at 37° C. for 1 hour in 96-well round bottom plates. Subsequently, the suspensions were incubated with a hypoxic gas mixture (2.5% Oxygen gas/balance Nitrogen gas) at 37° C. for up to 2 hours prior to fixation with 2% glutaraldehyde solution without exposure to air. The fixated blood aliquots were evaluated by microscopic morphological analysis (image analysis on Image J software) to identify the proportion of sickled and non-sickled RBCs, and sickle inhibition calculated based on the % change from negative control (DMSO).
To establish oxygen-independent sickle inhibition, the incubation chamber was subsequently opened and exposed to room air for 15 minutes to ensure complete re-oxygenation and reversal of the sickled cells to normal round cells. Reversal was confirmed by microscopy. The incubation chamber was then closed, and the assay was repeated with incubation in 100% nitrogen gas for 1 hour (for screening), or up to 2.5 h (for time-course studies), with collection and fixation of blood aliquots at defined intervals. Aliquot samples were again subjected to microscopic morphological analysis of bright field images to identify the proportion of sickled and non-sickled cells, and sickle inhibition calculated.

[5] = 14-day repeat-dose safety (clinical observations, histopathology) in rats; format: in vivo, male and female SD rats; conditions: for safety in non-clinical toxicology (in words): above anticipated therapeutic drug levels; for clinical or histopathologic changes after 14 days of exposure: rats, oral 100 mg/kg once daily for 14 days
Description: as §1, §2

Hb = molecular target: T1, Hb (Homo sapiens, UniProt P69905); experiment: Occupancy/dose-dependent p50 shift in human non-sickle blood; format: biochemical; conditions: compared to Voxelotor at equivalent drug-Hb occupancy levels
T1 construct: as separate independent studies with non-sickle blood; from tissue; host or cells: non-sickling AA blood (red blood cells)
T1 sequence (P69905 2-142 limits assumed): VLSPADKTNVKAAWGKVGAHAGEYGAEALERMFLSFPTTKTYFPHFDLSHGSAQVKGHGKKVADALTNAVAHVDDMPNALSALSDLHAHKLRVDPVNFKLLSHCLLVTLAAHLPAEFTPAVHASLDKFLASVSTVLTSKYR
T1 sequence (P68871 2-147 partner limits assumed): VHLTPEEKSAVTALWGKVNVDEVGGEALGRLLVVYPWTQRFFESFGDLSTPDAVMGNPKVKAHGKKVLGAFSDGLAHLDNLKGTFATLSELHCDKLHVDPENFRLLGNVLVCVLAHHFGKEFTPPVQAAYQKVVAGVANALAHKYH
Description: Non-sickling human blood was incubated with test compounds at 0.25-2 mM concentrations at 37° C. for 1 hour in 96-well round bottom plates. At conclusion, RBCs were washed once with PBS, followed by lysis with deionized water. Approximately 100 μl aliquots of individual lysates were added to 3 mL of 0.1M potassium phosphate buffer, pH 7.0 in a cuvette and subjected to hemoximetry analysis using a Hemox™ Analyzer (TCS Scientific Corp.) as previously described. (Abdulmalik et al., 2020; Pagare et al., 2020) Change in p50 values (Δp50) was calculated by subtracting the p50 values of treated samples from the value of the control sample and expressing the difference as a percentage of control p50 values.

[6] = ADME / bioavailability assessment
[7] = female rats, read-out: Cmax [μM] female
[8] = male rats, read-out: Cmax [μM] male

SMILES	AUC0-∞ [μM*h] [1]	Cmax [1] [µM]	AUC0-∞ [μM*h] female ([3]; female rats)	Cmax [3, 7] [µM]	AUC0-∞ [μM*h] male ([3]; male rats)	Cmax [3, 8] [µM]	polymer destabilizing effects / sickle inhibition in anoxia (in words) [4]	also measured
O=Cc1c(O)cccc1OCc1cncc(F)c1 [Comp 4, 2-((5-fluoropyridin-3-yl)methoxy)-6-hydroxybenzaldehyde]	3,360 μM*h	242						
O=Cc1c(O)cccc1OCc1cccnc1F [Comp 6, 2-((2-fluoropyridin-3-yl)methoxy)-6-hydroxybenzaldehyde]		49						AUC0-∞ [1]: 728 µM·h
CC(C)n1nccc1-c1ncccc1COc1cccc(O)c1C=O [Voxelotor, reference compound]			7,617 μM*h	548	6,760 μM*h	422	did not demonstrate any sickle inhibition	increase in Hb concentrations [2]: at least 1 g/dl
O=Cc1c(O)cccc1OCc1cccnc1 [Comp 1, 2-hydroxy-6-(pyridin-3-ylmethoxy)benzaldehyde]	17,415 μM*h	919	8,085 μM*h	534	10,490 μM*h	703	most potent polymer destabilizers discovered to date; also recorded: most potent and sustained polymer destabilizing effects observed to date	safety in non-clinical toxicology (in words) [5]: without hepatotoxicity; clinical or histopathologic changes after 14 days of exposure [5]: No clinical or histopathologic changes; changes in p50 of Hb in human blood (in words) (Hb): relatively weak changes in p50; absorption, distribution, metabolism and elimination (ADME) properties (in words) [6]: acceptable absorption, distribution, metabolism and elimination (ADME) properties without metabolic lability
O=Cc1c(O)cccc1OCc1ccccc1 [Reference A, 2-(benzyloxy)-6-hydroxybenzaldehyde, reference compound]							exhibits potent polymer destabilizing effects	bioavailability (in words) [6]: not bioavailable
O=Cc1c(O)cccc1OCc1ncccc1F [Comp 5, 2-((3-fluoropyridin-2-yl)methoxy)-6-hydroxybenzaldehyde]	12,047 μM*h	348	20,566 μM*h	993	17,073 μM*h	854		safety in non-clinical toxicology (in words) [5]: without hepatotoxicity; clinical or histopathologic changes after 14 days of exposure [5]: No clinical or histopathologic changes; changes in p50 of Hb in human blood (in words) (Hb): relatively weak changes in p50; absorption, distribution, metabolism and elimination (ADME) properties (in words) [6]: acceptable absorption, distribution, metabolism and elimination (ADME) properties without metabolic lability
COc1ccc(OCc2ccccn2)c(C=O)c1 [INN-310, reference compound]							only weak potency in anoxia	
O=Cc1c(O)cccc1OCc1cccc(CO)n1 [VZHE-039, reference compound]	8,782 μM*h	394	12,188 μM*h	894	11,585 μM*h	753		clinical or histopathologic changes after 14 days of exposure [5]: Both clinical and histopathologic changes in the liver, including hepatocyte necrosis
O=Cc1c(F)cc(F)cc1OCc1ccccn1 [Comp 9, 2,4-difluoro-6-(pyridin-2-ylmethoxy)benzaldehyde]							completely negates the polymer destabilization effects	
O=Cc1c(F)cc(F)cc1OCc1ncccc1F [Comp 13, 2,4-difluoro-6-((3-fluoropyridin-2-yl)methoxy)benzaldehyde]							completely negates the polymer destabilization effects	
O=Cc1c(O)cccc1OCc1ccccn1 [Comp 2, 2-hydroxy-6-(pyridin-2-ylmethoxy)benzaldehyde]	19,822 μM*h	958	21,547 μM*h	1110	20,363 μM*h	1110	most potent polymer destabilizers discovered to date; also recorded: most potent and sustained polymer destabilizing effects observed to date	safety in non-clinical toxicology (in words) [5]: without hepatotoxicity; clinical or histopathologic changes after 14 days of exposure [5]: No clinical or histopathologic changes; changes in p50 of Hb in human blood (in words) (Hb): relatively weak changes in p50; Cmax (ng/ml) female ([3]; female rats): 254,382 ng/ml; absorption, distribution, metabolism and elimination (ADME) properties (in words) [6]: acceptable absorption, distribution, metabolism and elimination (ADME) properties without metabolic lability
O=Cc1c(O)cccc1OCc1ncccc1Cl [Comp 8, 2-((3-chloropyridin-2-yl)methoxy)-6-hydroxybenzaldehyde]	1,022 μM*h	76						
O=Cc1c(OCc2cccnc2)ccc(F)c1O [Comp 12, 3-fluoro-2-hydroxy-6-(pyridin-3-ylmethoxy)benzaldehyde]							significantly reduced the potency of polymer inhibition	
O=Cc1c(O)cccc1OCc1cncnc1 [Comp 10, 2-hydroxy-6-(pyrimidin-5-ylmethoxy)benzaldehyde]	3,011 μM*h	157						
